“Also recorded” adds a separate entry of the source.
How the values were obtained:
TgENR = target: T1, TgENR (Toxoplasma gondii, UniProt Q6UCJ9); experiment: TgENR inhibitor assay; assay type: biochemical; conditions: for Inhibition of TgENR, in words: recombinant TgENR enzyme assay
T1 sequence (Q6UCJ9 28-417): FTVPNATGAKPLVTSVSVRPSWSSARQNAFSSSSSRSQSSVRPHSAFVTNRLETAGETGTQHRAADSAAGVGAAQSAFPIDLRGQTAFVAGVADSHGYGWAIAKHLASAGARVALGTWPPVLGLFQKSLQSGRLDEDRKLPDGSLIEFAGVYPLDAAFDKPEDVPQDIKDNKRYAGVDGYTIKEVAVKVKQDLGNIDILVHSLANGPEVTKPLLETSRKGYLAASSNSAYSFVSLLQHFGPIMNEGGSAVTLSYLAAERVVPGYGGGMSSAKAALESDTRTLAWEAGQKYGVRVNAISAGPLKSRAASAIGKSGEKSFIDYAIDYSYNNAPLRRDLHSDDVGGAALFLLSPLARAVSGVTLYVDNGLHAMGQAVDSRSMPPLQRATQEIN

[1] = tested on: tachyzoites of RH strain of T. gondii; experiment: Inhibition of T. gondii tachyzoites in vitro; assay type: cell-based, Toxoplasma gondii; conditions: uptake of tritiated uracil
[2] = tested on: human foreskin fibroblasts (HFF); experiment: Toxicity for host cells; assay type: cell-based; conditions: uptake of 3H thymidine by nonconfluent HFF
[3] = tested on: T. gondii (RH strain, Type 1); experiment: Testing of inhibitors in vivo, acute parenteral infection of mice; design: species or system Toxoplasma gondii; conditions: for Parasite burden in mice: CD1 mice infected intraperitoneally with 2000 T. gondii, inhibitors intraperitoneally at 10mg/kg, peritoneal cavity, day 5 post-infection, P<0.05; for Efficacy in protecting mice against parasite burden relative to triclosan: higher than triclosan itself
[4] = Human liver microsomal stability; assay type: in vitro ADME; conditions: compared with control drug verapamil
P. falciparum ENR = conditions: read-out: IC50 against P. falciparum ENR; cited from earlier work
S. aureus ENR = conditions: cited from earlier work
E. coli ENR = conditions: cited from earlier work
[5] = earlier studies; cited from earlier work

SMILES	Inhibition of TgENR, in words (TgENR)	Effect on T. gondii tachyzoites in tissue culture, in words [1]	Toxicity to fibroblasts, in words [2]	other results
Oc1cc(Cl)ccc1Oc1cnccn1 [Compound 18]	no activity	–	–	–
CCCc1ccc(Oc2cccc(B(O)O)c2)c(O)c1 [Compound 20, 3-(2-Hydroxy-4-propylphenoxy)phenyl boronic acid]	very effective inhibitor	–	–	–
C/C=C/C=C/C(=O)Nc1ccc(Oc2ccc(Cl)cc2O)cc1 [Compound 25, Hexa-2,4-dienoic acid (4-(4-chloro-2-hydroxyphenoxy)-phenyl)amide]	–	lack of inhibition	toxic	–
Oc1cc(Cl)ccc1Oc1ccc(-c2ccccc2)cc1 [Compound 6]	–	–	–	IC50 (TgENR): > 2000 nM
O=c1cc(OCc2ccccc2)ccn1Cc1ccc([N+](=O)[O-])cc1Cl [Compound 39]	low micro molar; also recorded: poor inhibitor	inhibition of T. gondii tachyzoites	lack of inhibition of fibroblast growth	–
O=[N+]([O-])c1ccc(Oc2ccc(Cl)cc2O)c(Cl)c1 [Compound 2]	highly active	inhibition of T. gondii tachyzoites	lack of inhibition of fibroblast growth	IC50 (TgENR): 45 nM; Parasite burden in mice [3]: reduce parasite burden; Efficacy in protecting mice against parasite burden relative to triclosan [3]: approximately 5 times; Intrinsic clearance, metabolic rate in HLM, in words [4]: slower than the control drug verapamil; IC50 (P. falciparum ENR): 200 nM
CCCc1ccc(Oc2ccc(C#N)cc2Cl)c(O)c1 [Compound 19]	–	inhibition of T. gondii tachyzoites; also recorded: efficacious	lack of inhibition of fibroblast growth; also recorded: not toxic	Parasite burden in mice [3]: reduce parasite burden; Efficacy in protecting mice against parasite burden relative to triclosan [3]: approximately 5 times; Intrinsic clearance, metabolic rate in HLM, in words [4]: slower than the control drug verapamil
CN(Cc1cc2ccccc2n1C)C(=O)/C=C/c1ccc(N)nc1 [Compound 50]	moderate activity	–	–	Activity against S. aureus ENR, in words (S. aureus ENR): very effective; Activity against E. coli ENR, in words (E. coli ENR): very effective
Oc1cc(Cl)ccc1Oc1cccnc1 [Compound 17]	some activity	–	–	–
Oc1cc(Cl)ccc1Oc1ccc(Cl)cc1Cl [Triclosan]	–	–	–	Safety in mice, in words [5]: safe
